Measurements from PubChem BioAssay AID248 (DTP/NCI, 2004).
“And” between values parts separate entries of the source, which are not always exact repeats. Equal entries are not always repeated. Inconclusive results and toxic doses are left out.

Test system: L1210 leukemia ip in BDF1 mice, survival T/C
Test: NCI In Vivo Anticancer Drug Screen. Data for tumor model L1210 Leukemia (intraperitoneal) in B6D2F1 (BDF1) mice
Conditions: endpoint: mean survival time, higher = longer survival
Method in brief: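 Antitumor effect is assessed in tumor-bearing animals. Survival in the compound arm is compared with a vehicle-dosed control arm and expressed as their quotient.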

[1] = dose: 100.0 mg/kg/injection, schedule: Q01DX009 (ip), vehicle: saline with Tween-80
[2] = dose: 100.0 mg/kg/injection, schedule: Q04DX003 (ip), vehicle: saline with Tween-80
[3] = dose: 200.0 mg/kg/injection, schedule: Q04DX003 (ip), vehicle: saline with Tween-80
[4] = dose: 400.0 mg/kg/injection, schedule: Q04DX003 (ip), vehicle: saline with Tween-80
[5] = dose: 100.0 mg/kg/injection, schedule: Q01DX001 (ip), vehicle: saline
[6] = dose: 200.0 mg/kg/injection, schedule: Q01DX001 (ip), vehicle: saline
[7] = dose: 200.0 mg/kg/injection, schedule: Q04DX003 (ip), vehicle: acetone
[8] = dose: 400.0 mg/kg/injection, schedule: Q04DX003 (ip), vehicle: acetone
[9] = dose: 100.0 mg/kg/injection, schedule: Q01DX001 (ip), vehicle: other
[10] = dose: 200.0 mg/kg/injection, schedule: Q01DX001 (ip), vehicle: other
[11] = dose: 100.0 mg/kg/injection, schedule: Q04DX003 (ip), vehicle: Klucel (hydroxypropylcellulose) (HPC)
[12] = dose: 200.0 mg/kg/injection, schedule: Q04DX003 (ip), vehicle: Klucel (hydroxypropylcellulose) (HPC)
[13] = dose: 100.0 mg/kg/injection, schedule: Q01DX009 (ip), vehicle: Klucel (hydroxypropylcellulose) (HPC)
[14] = dose: 200.0 mg/kg/injection, schedule: Q01DX009 (ip), vehicle: Klucel (hydroxypropylcellulose) (HPC)
[15] = dose: 400.0 mg/kg/injection, schedule: Q01DX009 (ip), vehicle: Klucel (hydroxypropylcellulose) (HPC)
[16] = dose: 50.0 mg/kg/injection, schedule: Q01DX009 (ip), vehicle: Klucel (hydroxypropylcellulose) (HPC)
[17] = dose: 25.0 mg/kg/injection, schedule: Q04DX003 (ip), vehicle: saline with Tween-80
[18] = dose: 50.0 mg/kg/injection, schedule: Q04DX003 (ip), vehicle: saline with Tween-80

## CCOc1ccc(NC(=S)NC(=O)c2cccc([N+](=O)[O-])c2)cc1
dose: 100.0 mg/kg/injection, schedule: Q01DX001 (ip), vehicle: saline with Tween-80
  T/C: 93 % of control
[1]
  T/C: 92 % of control and 95 % of control
dose: 100.0 mg/kg/injection, schedule: Q04DX002 (ip), vehicle: saline with Tween-80
  T/C: 93 % of control and 95 % of control
[2]
  T/C: 98 % of control
dose: 200.0 mg/kg/injection, schedule: Q01DX001 (ip), vehicle: saline with Tween-80
  T/C: 101 % of control
dose: 200.0 mg/kg/injection, schedule: Q01DX009 (ip), vehicle: saline with Tween-80
  T/C: 92 % of control and 98 % of control
dose: 200.0 mg/kg/injection, schedule: Q04DX002 (ip), vehicle: saline with Tween-80
  T/C: 97 % of control and 107 % of control
[3]
  T/C: 96 % of control
dose: 400.0 mg/kg/injection, schedule: Q01DX001 (ip), vehicle: saline with Tween-80
  T/C: 102 % of control
dose: 400.0 mg/kg/injection, schedule: Q01DX009 (ip), vehicle: saline with Tween-80
  T/C: 97 % of control and 106 % of control
dose: 400.0 mg/kg/injection, schedule: Q04DX002 (ip), vehicle: saline with Tween-80
  T/C: 104 % of control and 107 % of control
[4]
  T/C: 91 % of control

## OCC1OC(n2ccc3c(Cl)ncnc32)C(O)C1O (centres undefined)
dose: 25.0 mg/kg/injection, schedule: Q01DX001 (ip), vehicle: saline
  T/C: 110 % of control
dose: 50.0 mg/kg/injection, schedule: Q01DX001 (ip), vehicle: saline
  T/C: 104 % of control
[5]
  T/C: 110 % of control
[6]
  T/C: 110 % of control

## CC(C)CCC1(c2ccccc2)C(=O)NC(=O)NC1=O
[5]
  T/C: 92 % of control

## O=C(NNC1CCCCC1)c1ccccc1
dose: 100.0 mg/kg/injection, schedule: Q04DX003 (ip), vehicle: acetone
  T/C: 107 % of control
[7]
  T/C: 109 % of control
[8]
  T/C: 86 % of control

## CCCCCCCCCCCCCCCCS(=O)(=O)c1ccc(S(=O)(=O)CS(C)(=O)=O)cc1[N+](=O)[O-]
[9]
  T/C: 98 % of control
[10]
  T/C: 91 % of control

## CCCCCCCCCCCN1C(=O)c2ccccc2S1(=O)=O
dose: 222.0 mg/kg/injection, schedule: Q01DX Z (ip), vehicle: methylcellulose (MC)
  T/C: 91 % of control
dose: 333.0 mg/kg/injection, schedule: Q01DX Z (ip), vehicle: methylcellulose (MC)
  T/C: 105 % of control
dose: 500.0 mg/kg/injection, schedule: Q01DX Z (ip), vehicle: methylcellulose (MC)
  T/C: 102 % of control

## O=C1OC(c2ccccc2)CC1N1CCOCC1 (centres undefined)
dose: 100.0 mg/kg/injection, schedule: Q01DX009 (ip), vehicle: saline sonified
  T/C: 106 % of control
[11]
  T/C: 98 % of control
dose: 200.0 mg/kg/injection, schedule: Q01DX009 (ip), vehicle: saline sonified
  T/C: 99 % of control
[12]
  T/C: 104 % of control
dose: 400.0 mg/kg/injection, schedule: Q01DX009 (ip), vehicle: saline sonified
  T/C: 97 % of control
dose: 400.0 mg/kg/injection, schedule: Q04DX003 (ip), vehicle: Klucel (hydroxypropylcellulose) (HPC)
  T/C: 98 % of control

## COc1cc(Cl)ccc1NC(=O)N(C)C1CCCCC1
[13]
  T/C: 104 % of control
[14]
  T/C: 104 % of control
[15]
  T/C: 95 % of control

## O=C1C2C(C(=O)N1c1ccccc1)C1c3ccccc3C2C2CCCCN21 (centres undefined)
dose: 25.0 mg/kg/injection, schedule: Q01DX009 (ip), vehicle: Klucel (hydroxypropylcellulose) (HPC)
  T/C: 102 % of control
[16]
  T/C: 105 % of control
[13]
  T/C: 92 % of control
[11]
  T/C: 92 % of control

## O=C(Nc1ccccc1)OCC#CCOC(=O)Nc1ccccc1
[13]
  T/C: 97 % of control
[14]
  T/C: 90 % of control
[15]
  T/C: 100 % of control

## CSc1cc(-c2ccc(Cl)cc2)s[s+]1
dose: 12.5 mg/kg/injection, schedule: Q01DX009 (ip), vehicle: saline with Tween-80
  T/C: 95 % of control
dose: 25.0 mg/kg/injection, schedule: Q01DX009 (ip), vehicle: saline with Tween-80
  T/C: 90 % of control
[17]
  T/C: 100 % of control
dose: 50.0 mg/kg/injection, schedule: Q01DX009 (ip), vehicle: saline with Tween-80
  T/C: 97 % of control
[18]
  T/C: 103 % of control
[2]
  T/C: 98 % of control and 86 % of control

## O=C(Nc1ccc(Cl)cc1)N1CC1
dose: 12.5 mg/kg/injection, schedule: Q04DX003 (ip), vehicle: Klucel (hydroxypropylcellulose) (HPC)
  T/C: 92 % of control
dose: 25.0 mg/kg/injection, schedule: Q04DX003 (ip), vehicle: Klucel (hydroxypropylcellulose) (HPC)
  T/C: 94 % of control
dose: 50.0 mg/kg/injection, schedule: Q04DX003 (ip), vehicle: Klucel (hydroxypropylcellulose) (HPC)
  T/C: 98 % of control

## CCCCCCCCCCCCCCc1sc(N)nc1-c1ccccc1
[5]
  T/C: 98 % of control
[6]
  T/C: 98 % of control
dose: 400.0 mg/kg/injection, schedule: Q01DX001 (ip), vehicle: saline
  T/C: 95 % of control

## O=c1oc2cc(N=Cc3ccc4c(c3)OCO4)ccc2c2ccccc12
[9]
  T/C: 91 % of control
[10]
  T/C: 93 % of control
dose: 400.0 mg/kg/injection, schedule: Q01DX001 (ip), vehicle: other
  T/C: 90 % of control

## CCOC(=O)C(Cc1ccc2ccccc2n1)C(C)=O (centres undefined)
dose: 50.0 mg/kg/injection, schedule: Q01DX009 (ip), vehicle: DMSO
  T/C: 86 % of control
dose: 100.0 mg/kg/injection, schedule: Q01DX009 (ip), vehicle: DMSO
  T/C: 102 % of control

## CCN(CC)Cc1cc(Cl)cc(Cc2cc(Cl)cc(CN(CC)CC)c2O)c1O
[7]
  T/C: 109 % of control
[8]
  T/C: 98 % of control

## N#C/C(=C1C=C/C(=N/O)C(Cl)=C/1)c1ccc(Cl)cc1
dose: 50.0 mg/kg/injection, schedule: Q01DX001 (ip), vehicle: carboxymethylcellulose (CMC)
  T/C: 96 % of control
dose: 100.0 mg/kg/injection, schedule: Q01DX001 (ip), vehicle: carboxymethylcellulose (CMC)
  T/C: 98 % of control
[2]
  T/C: 103 % of control
dose: 200.0 mg/kg/injection, schedule: Q01DX001 (ip), vehicle: carboxymethylcellulose (CMC)
  T/C: 93 % of control
[3]
  T/C: 97 % of control
dose: 400.0 mg/kg/injection, schedule: Q01DX001 (ip), vehicle: carboxymethylcellulose (CMC)
  T/C: 91 % of control
[4]
  T/C: 97 % of control

## CCCCCCCCCCCCCC(=O)OC1C(CO)OC2C1Oc1nc(=N)ccn12 (centres undefined)
dose: 25.0 mg/kg/injection, schedule: Q01DX009 (ip), vehicle: other
  T/C: 152 % of control
dose: 50.0 mg/kg/injection, schedule: Q01DX009 (ip), vehicle: other
  T/C: 171 % of control
dose: 100.0 mg/kg/injection, schedule: Q01DX009 (ip), vehicle: other
  T/C: 214 % of control
dose: 200.0 mg/kg/injection, schedule: Q01DX009 (ip), vehicle: other
  T/C: 179 % of control

## NC(Cc1cn(Cc2ccccc2)cn1)C(=O)O (centres undefined)
dose: 12.5 mg/kg/injection, schedule: Q04DX003 (ip), vehicle: saline
  T/C: 109 % of control
dose: 25.0 mg/kg/injection, schedule: Q04DX003 (ip), vehicle: saline
  T/C: 89 % of control
dose: 50.0 mg/kg/injection, schedule: Q04DX003 (ip), vehicle: saline
  T/C: 106 % of control

## Cc1cc(P(=O)(O)O)ccc1[N+](=O)[O-]
dose: 75.0 mg/kg/injection, schedule: Q01DX001 (ip), vehicle: saline
  T/C: 95 % of control
dose: 150.0 mg/kg/injection, schedule: Q01DX001 (ip), vehicle: saline
  T/C: 88 % of control
dose: 300.0 mg/kg/injection, schedule: Q01DX001 (ip), vehicle: saline
  T/C: 96 % of control

## Clc1cc(CBr)c(CBr)cc1Cl
dose: 12.5 mg/kg/injection, schedule: Q04DX003 (ip), vehicle: saline with Tween-80
  T/C: 94 % of control
[17]
  T/C: 97 % of control
[18]
  T/C: 91 % of control

## CCCC1=C(CCC)C1C(=O)O
[16]
  T/C: 91 % of control
[13]
  T/C: 100 % of control
[11]
  T/C: 103 % of control
[14]
  T/C: 88 % of control
[12]
  T/C: 96 % of control

## CC(C)=CN1CC2CCCC(CC2)C1
[11]
  T/C: 98 % of control
[12]
  T/C: 101 % of control

## Cc1cc2c(cc1C)C(=O)C(N1CCN(C)CC1)CCC2 (centres undefined)
[2]
  T/C: 101 % of control

## Nc1ccc(Cl)cc1-c1nc2ccccc2[nH]1
[2]
  T/C: 91 % of control
[3]
  T/C: 95 % of control
[4]
  T/C: 91 % of control

## N#C/C(=C\c1c(O)ccc2ccccc12)c1ccc([N+](=O)[O-])cc1
dose: 66.0 mg/kg/injection, schedule: Q01DX009 (ip), vehicle: saline with Tween-80
  T/C: 89 % of control
[1]
  T/C: 91 % of control
dose: 150.0 mg/kg/injection, schedule: Q01DX009 (ip), vehicle: saline with Tween-80
  T/C: 86 % of control
